Experimental data as given in PubChem BioAssay AID493003 (Sanford-Burnham Center for Chemical Genomics, 2010).
pIC50: −log10 of the molar value. The source made the active and inactive calls. The rule behind the calls is not given here.

The compounds below were run on S. cerevisiae tim10-1 mutant growth, luminescence (assay: tim10-1 yeast growth inhibition potency – luminescence, S. cerevisiae, uHTS hits, dose response (AID 493003);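 note: yeast growth measured after about 22 hours at 25 °C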).
`Cc1[nH]nc2c1-c1nc3ccccc3nc1C(C)(C)C2` gave a pIC50 of 4.62.
In the case of `Cc1nc(SCC(=O)N2CCN(c3ccccc3)CC2)c2oc3ccccc3c2n1`, the pIC50 was 4.39.
`Cc1ccc(NC2=C/C(=N\S(=O)(=O)c3cccs3)c3ccccc3C2=O)c(C)c1` was tested, and the pIC50 was 5.40.
Compound `CCOC(=O)c1c(N)sc2c(OC)c(Br)ccc12` has a pIC50 of 4.52.
With `O=C1CC(Sc2cccs2)C(=O)N1c1ccccc1` (configuration not stated) the pIC50 was 4.51.
In the case of `CCOC(=O)c1sc(-c2ccc(Br)cc2)cc1N`, the pIC50 was 4.73.
Work on `CCOc1cc(/C=C/C(=O)c2ccc(C)cc2)ccc1OCC(=O)N(C)C` yielded a pIC50 of 4.66.
Compound `NNc1nc(-c2ccccc2)c2cc(Br)ccc2n1` has a pIC50 of 5.00.
`O=C(CSCc1ccccc1Cl)NNC(=S)Nc1ccccc1` showed a pIC50 of 4.48.
Compound `Cc1c(Cl)cccc1NC(=O)c1cccc(OC(F)F)c1` has a pIC50 of 4.48.
`O=[N+]([O-])c1ccccc1/C=C/C=N/n1c(-c2ccccc2)n[nH]c1=S` was tested, and the pIC50 was 4.13.
Work on `Cc1ccc(/C(N)=N/OC(=O)C(C)c2ccc([N+](=O)[O-])cc2)cc1` (configuration not stated) yielded a pIC50 of 5.00.
`Clc1ccccc1OCc1nnc(-c2ccccc2Br)o1` showed a pIC50 of 4.55.
Compound `CCSc1nnc(NC(=O)c2nc(-c3ccccc3)n(-c3ccccc3)n2)s1` has a pIC50 of 4.59.
`Cc1nn(Cc2c(F)c(F)c(F)c(F)c2F)c(C)c1NC(=O)c1ccc(COc2ccccc2Cl)o1` showed a pIC50 of 4.22.
In the case of `CC(C)C(=O)N1CCN(c2ccccc2NC(=O)c2ccc([N+](=O)[O-])o2)CC1`, the pIC50 was 4.94.
`Nc1ccccc1C(=O)/C=C/c1ccc2c(c1)OCO2` gave a pIC50 of 4.83.
`O=C(/C=C/c1ccccc1)CC(O)(c1ccccc1)C(F)(F)C(F)F` (configuration not stated) showed a pIC50 of 4.79.
`NC(=O)C1CCN(C2CC(=O)N(c3ccc(F)c(Cl)c3)C2=O)CC1` (configuration not stated) showed a pIC50 of 4.67.
`Oc1ccc(-c2nccc(-c3ccc(F)cc3)n2)cc1` showed a pIC50 of 4.30.
In the case of `COc1ccc(C(=O)O/N=C(\N)Cc2ccc(Cl)c(Cl)c2)cc1OC`, the pIC50 was 6.12.
In the case of `Cc1nc(Nc2ccccc2)sc1-c1ccccc1`, the pIC50 was 4.92.
With `O=C(NCCC1=CCCCC1)NC12CC3CC(CC(C3)C1)C2` the pIC50 was 4.29.
`Fc1ccc(-c2csc3ncnc(Nc4ccc(N5CCOCC5)cc4)c23)cc1` was tested, and the pIC50 was 4.39.
Work on `Cc1ccsc1C1Nc2ccccc2-c2nc3ccccc3n21` (configuration not stated) yielded a pIC50 of 4.55.
`COc1ccc(-c2noc(C3CCCN(C(=O)CCc4ccccc4)C3)n2)cc1` (configuration not stated) gave a pIC50 of 4.75.
In the case of `O=C1CS(=O)(=O)N(Cc2cccc(F)c2)c2ccc(Br)cc21`, the pIC50 was 5.26.
With `O=[N+]([O-])c1cccc(NC(=S)NCCc2ccccc2)c1` the pIC50 was 4.48.
`CC1=C/C(=N\OS(=O)(=O)c2ccccc2)C(C)=CC1=O` gave a pIC50 of 6.52.
In the case of `CC1CCN(c2ccccc2NC(=S)NC(=O)C(C)(C)C)CC1`, the pIC50 was 4.12.
Work on `Nc1nc(Cl)cc(N2CCC(c3cc(-c4ccc(Cl)cc4)n[nH]3)CC2)n1` yielded a pIC50 of 4.75.
With `O=C(c1cc(COc2cccc(C(F)(F)F)c2)on1)N1C[C@@H]2CCC[C@H]1C2` the pIC50 was 4.56.
`N/C(=N\OC(=O)CCC1CCCC1)c1ccccc1` gave a pIC50 of 4.78.
Compound `CO/N=C/c1ccc(Sc2ccccc2N)c([N+](=O)[O-])c1` has a pIC50 of 4.25.
Work on `O=C(Nc1ccc(Cl)c(C(F)(F)F)c1)c1ccco1` yielded a pIC50 of 4.54.
With `CN(C)S(=O)(=O)c1cccc(NC(=O)COc2cccc3ccccc23)c1` the IC50 was > 100 µM (inactive).
Work on `CCCCC(CC)C(=O)Nc1ncc([N+](=O)[O-])s1` (configuration not stated) yielded a pIC50 of 4.71.
`Cc1c(C)n(C)c2ccc(C(=O)Nc3cccc4ccccc34)cc12` was tested, and the IC50 was > 100 µM (inactive).
In the case of `NC(=S)N/N=C/c1ccccc1OCCSc1ccc(Cl)cc1`, the pIC50 was 4.13.
Work on `Fc1ccccc1CNc1ccc(Cl)c(Cl)c1` yielded a pIC50 of 4.57.
`C=CCn1c(SCc2c(F)cccc2Cl)nnc1-c1ccco1` showed a pIC50 of 4.46.
In the case of `Cc1ccc2cc3cc(C(=O)NCCCN4CCc5ccccc5C4)oc3nc2c1`, the IC50 was > 100 µM (inactive).
`COc1ccc(Cl)cc1NC(=S)NCCSc1ccc(C)cc1` showed a pIC50 of 4.75.
In the case of `O=Cc1c[nH]c2cccc(OCc3ccccc3)c12`, the pIC50 was 4.56.
Work on `CCc1ccc(NC(=S)N(Cc2ccccc2)Cc2ccccn2)cc1` yielded a pIC50 of 4.42.
In the case of `COc1ccc(/C=C/C(=O)c2ccccc2)cc1Cn1nnc2ccccc21`, the pIC50 was 5.19.
Compound `C/C(=N\NC(=S)Nc1cccc(C)c1)c1cc2ccccc2o1` has a pIC50 of 4.32.
Work on `Cc1cc(/C=C\c2ccc3cc(N(C)C)ccc3[n+]2C)c(C)n1-c1ccccc1` yielded a pIC50 of 5.02.
`COc1ccc(-c2cc(-c3ccc(Cl)cc3)n[nH]2)c(O)c1` was tested, and the pIC50 was 4.57.
`N/C(=N\OC(=O)CCC1CCCC1)c1ccc([N+](=O)[O-])cc1` showed a pIC50 of 4.77.
Work on `S=C(NCCSCc1ccc(Cl)cc1)Nc1ccccc1` yielded a pIC50 of 4.71.
`COc1ccc(Cl)cc1NC(=S)NCCc1ccc(F)cc1` was tested, and the pIC50 was 5.15.
`COC(=O)c1cc(C)[nH]c2c(C)cc3nc4ccccc4c3c12` was tested, and the pIC50 was 4.68.
In the case of `Cn1c(Cl)cnc1C1CC(=O)c2cc(Cl)ccc2O1` (configuration not stated), the pIC50 was 5.08.
Work on `Cc1ccc(NC(=O)c2ccc([N+](=O)[O-])o2)c(C)c1` yielded a pIC50 of 4.80.
`CC(C)c1ccc(S(=O)(=O)Nc2ccc(SC(F)F)cc2)cc1` showed a pIC50 of 4.34.
In the case of `CC(C)(C)c1ccc(-c2cc(-c3ccccc3O)[nH]n2)cc1`, the pIC50 was 4.41.
In the case of `COc1ccc(Br)c(-c2nnc(CS(=O)(=O)c3ccccc3)o2)c1`, the pIC50 was 4.55.
Work on `N/C(=N\OC(=O)CCCOc1ccccc1)c1cccc([N+](=O)[O-])c1` yielded a pIC50 of 4.27.
`Cc1cccc(Oc2cc(NC(=O)c3ccccc3)cc([N+](=O)[O-])c2)c1` showed a pIC50 of 4.69.
With `Fc1cc(F)cc(Nc2nc(Cl)nc(NC3CCCC3)n2)c1` the pIC50 was 4.42.
`CCSc1ccc2c(c1)N(CCCN1CCN(C)CC1)c1ccccc1S2` showed a pIC50 of 4.60.
With `Cc1ccc(NC(=O)CN2CCC3(O)CCCCC3C2c2ccc3c(c2)OCO3)c(C)c1` (configuration not stated) the pIC50 was 4.22.
For `CCOC(=O)C1CCCN(C2CC(=O)N(c3cccc(C(F)(F)F)c3)C2=O)C1` (configuration not stated), the pIC50 was 4.86.
`COC(=O)c1cccc(Nc2cc(C)nc(-c3ccccc3O)n2)c1` was tested, and the IC50 was > 100 µM (inactive).
Compound `COc1ccccc1N1C(=O)CC(Sc2n[nH]c(-c3cccc(C)c3)n2)C1=O` (configuration not stated) has a pIC50 of 5.11.
`FC(F)C(F)(F)C(F)(F)C(F)(F)c1cc(-c2ccccc2)n[nH]1` was tested, and the pIC50 was 4.82.
With `Cc1ccc(Nc2nc(Cl)nc(N(C)C#N)n2)cc1` the pIC50 was 4.60.
For `CC1CCCCN1S(=O)(=O)c1ccc2c(c1)CCN2C(=O)C1CCC1` (configuration not stated), the pIC50 was 4.21.
With `CC(C)C(c1nnnn1C1CCCC1)N1CCCc2ccccc21` (configuration not stated) the pIC50 was 4.85.
Work on `COc1ccc(Cc2n[nH]c(=S)n2NC(=O)Nc2ccc(Cl)c(Cl)c2)cc1` yielded a pIC50 of 4.25.
`COc1ccccc1C/C(N)=N/OC(=O)c1ccco1` gave a pIC50 of 4.43.
`Clc1ccc(CNc2nc(CN3CCOCC3)nc3scc(-c4ccccc4)c23)cc1` was tested, and the pIC50 was 4.88.
`Cn1c(-c2ccccc2O)cc2ccccc21` gave a pIC50 of 4.53.
`Cc1ccc(F)c([C@H]2[C@@H]3C=CCC[C@@]3(C)C(=O)N2Cc2ccccc2)c1` was tested, and the pIC50 was 4.84.
In the case of `O=C(/C(N=Nc1cccc(C(F)(F)F)c1)=C(/O)c1cccs1)C(F)(F)F`, the IC50 was > 100 µM (inactive).
In the case of `Clc1ccc(Cn2c(/C=C/c3ccco3)nc3ccccc32)cc1`, the pIC50 was 4.34.
For `Cc1cc(C)cc(N2C(=O)CC(Sc3nnnn3-c3ccccc3)C2=O)c1` (configuration not stated), the pIC50 was 4.87.
`Cc1sc2ncnc(N3CCN(CCOc4ccc(Cl)cc4)CC3)c2c1C` gave a pIC50 of 4.42.
With `CC(C)c1nnc(NC(=O)CCS(=O)(=O)c2nc(-c3cccs3)cc(C(F)(F)F)n2)s1` the pIC50 was 4.92.
`O=c1oc2ccccc2c(O)c1/C=C1\C=Nc2ccccc21` showed a pIC50 of 5.20.
With `COc1cc(Br)cc(/C=C/c2ccc3cccc(O)c3n2)c1O` the pIC50 was 4.33.
Work on `CCOC(=O)N1CCN(S(=O)(=O)c2ccc3c(c2)CCN3C(=O)C2CCC2)CC1` yielded a pIC50 of 4.47.
For `Cc1ccc(S(=O)(=O)c2nc(S(C)(=O)=O)sc2N2CCCCC2C)cc1` (configuration not stated), the pIC50 was 5.15.
Work on `O=C(Nc1ccc(F)cc1)c1cccc2c1C(=O)N(Cc1ccccn1)C2` yielded a pIC50 of 4.74.
For `CCOC(=O)Cc1csc(NC(=O)CSc2ccc(Br)cc2)n1`, the pIC50 was 4.42.
Compound `c1ccc(-c2cc(-c3nc4ccccc4[nH]3)c3ccccc3n2)cc1` has a pIC50 of 4.30.
Work on `COc1ccc(C(=O)O/N=C(\N)c2ccccc2Cl)cc1OC` yielded a pIC50 of 4.82.
Compound `CCOC(=O)c1ccc(N=c2ssnc2Cl)cc1` has a pIC50 of 4.98.
Compound `CC1CCCCN1S(=O)(=O)c1ccc(NC(=O)c2ccco2)cc1` (configuration not stated) has a pIC50 of 4.64.
With `COc1ccc2[nH]c3c(=O)n4c(nc3c2c1)SCCC4` the pIC50 was 4.39.
Compound `O=C(NNC(=S)Nc1cccc(C(F)(F)F)c1)c1ccc(Cl)cc1Cl` has a pIC50 of 5.07.
Compound `CCOC(=O)c1c(CSc2ccc(C)cc2)n(C)c2cc(Br)c(O)c(CN(C)C)c12` has a pIC50 of 4.80.
`S=C1NC(c2cccs2)=CC(c2ccc(Br)cc2)N1` (configuration not stated) was tested, and the pIC50 was 4.74.
In the case of `CCNc1ccc(Br)cc(C(=O)/C=C/c2c(Cl)cccc2Cl)c1=O`, the pIC50 was 4.66.
For `Cc1ccccc1NC(=O)CSc1nc(N)c2c3c(sc2n1)CSC(C)(C)C3`, the pIC50 was 4.44.
`FC(F)(F)c1ccc(NC(=S)NC2CCCCC2)cc1` was tested, and the pIC50 was 4.56.
With `O=C(NC1CCCCC1)c1ccc(-c2ccc(Cl)cc2)o1` the pIC50 was 4.76.
For `CN1CCc2c(C#N)c(N3CCCCC3)nc(NCc3ccccc3)c2C1`, the pIC50 was 4.80.
Work on `O=C(CN1CCN(S(=O)(=O)c2ccc3ccccc3c2)CC1)Nc1ccc2c(c1)CCC2` yielded a pIC50 of 4.44.
`COc1ccc(/C(N)=N/OC(=O)c2ccc3c(c2)OCO3)cc1` gave a pIC50 of 4.83.
With `COc1ccc(OCC(=O)O/N=C(\N)Cc2ccc(Cl)cc2)cc1` the pIC50 was 4.42.
`N/C(=N\OC(=O)c1cccc(Cl)c1)c1ccccn1` was tested, and the pIC50 was 4.57.
In the case of `CCCOc1ccccc1NC(=O)/C=C/C(N)=O`, the pIC50 was 5.25.
Work on `Fc1ccc(CNC(=S)Nc2cccc(C(F)(F)F)c2)cc1` yielded a pIC50 of 4.79.
In the case of `CC(=O)N1CCN(c2cc(N3CCc4ccccc4C3)c(F)cc2[N+](=O)[O-])CC1`, the pIC50 was 5.00.
In the case of `CCN(CC)c1ccc(NC(=O)CCCCCN2C(=O)c3ccccc3C2=O)cc1`, the pIC50 was 4.84.
For `COc1ccc(-n2cc(-c3ccccc3)c3c(=S)nc[nH]c32)cc1`, the pIC50 was 4.89.
For `COc1ccc(C2NC(=S)NC3=C2CCc2cc(OC)ccc23)cc1` (configuration not stated), the pIC50 was 4.44.
`Cc1ccc(O)c(-c2cc(-c3cccc(F)c3)n[nH]2)c1` was tested, and the pIC50 was 4.01.
`COC(=O)c1c(N2C(=O)CC(Sc3ccccc3C(=O)O)C2=O)sc2c1CCCC2` (configuration not stated) gave a pIC50 of 4.91.
Compound `C[C@H]1C=CC(=O)O[C@H]1c1ccccc1` has a pIC50 of 4.68.
Compound `O=S(=O)(/N=C(/Sc1ccccc1)c1ccccc1)c1ccccc1` has a pIC50 of 4.59.
With `COc1cc(/C=C/C(=O)CC(=O)/C=C/c2ccc(O)c(OC)c2)ccc1O` the pIC50 was 4.71.
For `Cc1cc(NC(=O)C2CC2)ncc1NC(=O)C12CC3CC(CC(C3)C1)C2`, the IC50 was > 100 µM (inactive).
With `CCN1CCN(c2cc(N3CCc4ccccc4C3)c(F)cc2[N+](=O)[O-])CC1` the pIC50 was 4.54.
`O=C1NCCc2c1[nH]c1c(Cl)ccc(Cl)c21` showed a pIC50 of 4.32.
